Results as given in PubChem BioAssay (NCI).
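Results reflect a 48-hour exposure of cells in 96-well plates to compound at five concentrations. At the TGI there is no net growth.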

Columns and labels:
Assay in all cases: growth of human tumour cells (NCI), 48 h
BT-549 breast = tested on: BT-549 breast
OVCAR-5 ovarian = tested on: OVCAR-5 ovarian
HCT-116 colon = tested on: HCT-116 colon
HCC-2998 colon = tested on: HCC-2998 colon
HT29 colon = tested on: HT29 colon
A549 NSCLC = tested on: A549 NSCLC
K-562 leukemia = tested on: K-562 leukemia
RPMI-8226 leukemia = tested on: RPMI-8226 leukemia
OVCAR-4 ovarian = tested on: OVCAR-4 ovarian
DU-145 prostate = tested on: DU-145 prostate
SF-295 CNS = tested on: SF-295 CNS

Row | Compound | TGI (BT-549 breast) [µM] | TGI (OVCAR-5 ovarian) [µM] | TGI (HCT-116 colon) [µM] | TGI (HCC-2998 colon) [µM] | TGI (HT29 colon) [µM] | TGI (A549 NSCLC) [µM] | TGI (K-562 leukemia) [µM] | TGI (RPMI-8226 leukemia) [µM] | TGI (OVCAR-4 ovarian) [µM] | TGI (DU-145 prostate) [µM] | TGI (SF-295 CNS) [µM]
1 | O=C(O)c1ccc(NS(=O)(=O)Cc2ccccc2)cc1 | > 100 | > 100 | > 100 | > 100 | > 100 | > 100 | > 100 | > 100 | > 100 | > 100 | > 100
2 | C(=Nc1ccc(-c2nc3ccccc3s2)cc1)c1ccco1 | > 100 | > 100 | > 100 | > 100 | > 100 | > 100 | > 100 | > 100 | > 100 | > 100 | 59.1
3 | CCOC(=O)C1C(=O)CC(O)(c2ccccc2)C(C(=O)OCC)C1c1ccc(OC)cc1 (stereo not given) | > 100 | > 100 | > 47 | > 100 | 35.9 | > 100 | > 83.4 | 40.6 | > 100 | > 100 | 17.5
4 | Cc1ccc(C(=O)Nc2ccc(CP(=O)(O)O)cc2)cc1NC(=O)c1cccc(NC(=O)Nc2cccc(C(=O)Nc3cc(C(=O)Nc4ccc(CP(=O)(O)O)cc4)ccc3C)c2)c1 | > 100 | > 100 | > 100 | > 100 | > 100 | > 100 | > 100 | > 100 | > 100 | > 100 | > 100
5 | CC(=O)OCC1OC(n2c(=S)[nH]c(-c3ccccc3)c(C#N)c2=O)C(OC(C)=O)C(OC(C)=O)C1OC(C)=O (stereo not given) | > 100 | > 100 | > 100 | > 100 | > 100 | > 100 | > 100 | > 100 | > 100 | > 100 | > 100
6 | N#Cc1c2c(c(Nc3ccc(F)cc3)n3c1nc1ccccc13)CCC2 | 17.8 | 13.9 | 3.45 | 41.9 | 3.61 | 22.5 | > 100 | > 21.3 | 28.4 | 13.9 | 18.7
7 | Cc1cc(O)cc(O)c1N=Nc1ccc([N+](=O)[O-])cc1 | 54.1 | 85.1 | 15.4 | 49 | > 100 | > 100 | > 100 | 39.8 | 57 | 79.1 | > 100
8 | CN(O)C(=O)Cc1ccc(OCc2cccc(Cl)c2)cc1 | > 100 | > 100 | > 100 | > 100 | > 100 | > 100 | > 100 | > 100 | > 100 | > 100 | > 100
9 | O=C1/C(=C/c2ccc([N+](=O)[O-])cc2)CNC/C1=C\c1ccc([N+](=O)[O-])cc1 | 7.73 | > 69.6 | 1.97 | 23.4 | 3.57 | > 70.7 | 1.21 | 2.75 | > 50.9 | 35.6 | 34.1
10 | CN1C(=O)CN(NC(=O)C2=C(O)c3ccc(Br)cc3S(=O)(=O)N2)C1=S | > 100 | > 100 | > 100 | > 100 | > 100 | > 100 | > 100 | > 100 | > 100 | > 100 | > 100
11 | CC(=O)CC(=O)c1cc2c(=O)oc(C)cc2oc1=O | > 37.5 | > 37.5 | > 37.5 | > 37.5 | > 37.5 | > 37.5 | > 37.5 | > 37.5 | > 37.5 | > 37.5 | > 37.5
12 | CCC[C@H](C)[C@H]1NC(=O)[C@@H](NC(=O)[C@@H](CC(C)C)N(C)C(=O)C2CCCN2C(=O)[C@H](C)O)[C@@H](C)OC(=O)[C@H](CC(C)C)N(C)C(=O)[C@@H]2CCCN2C(=O)[C@H](CC(C)C)NC(=O)[C@@H](C)C(=O)[C@H](C(C)C)OC(=O)C[C@@H]1O (stereo not given in full) | 0.025 | 0.0346 | 0.00356 | 0.00551 | 0.0102 | 0.131 | 3.26 | 0.0768 | 0.0117 | 0.0143 | 0.0536
13 | Nc1ncnc2c1ncn2C(=O)NC12CC3CC(CC(C3)C1)C2 | > 100 | > 100 | > 100 | > 100 | > 100 | > 100 | > 100 | > 100 | > 100 | > 100 | > 100
14 | O=C1C(Br)=Cc2c(Cl)sc(Cl)c21 | 88.4 | 36 | 6.25 | 7.71 | 27.3 | > 72.9 | 13.6 | 2.98 | 8.81 | 18 | > 66.4
15 | C/C(=N/NC(=S)Nc1cccc(C)c1)c1ccccn1 | 12.2 | 2.67 | 3.11 | 4.18 | 2.39 | 8.51 | 1.64 | 13.7 | 8.93 | 8.29 | 4.89
16 | C=CC/C(C(=O)OC)=C(/C(=O)OC)N(CCC)CCC | > 100 | > 100 | > 100 | > 100 | > 100 | > 100 | > 100 | > 100 | > 100 | > 100 | > 100
17 | c1ccc2c(c1)CCCN1CCc3ccccc3C21 (stereo not given) | > 100 | > 100 | > 100 | > 100 | > 100 | > 100 | > 100 | > 100 | > 100 | > 100 | > 100
18 | COC(=O)C1CC(C=[N+](C)C)=C(SC)N1 (stereo not given) | > 100 | > 100 | > 100 | > 100 | > 100 |  | > 100 | > 100 | > 100 | > 100 | > 100
19 | CC1=CC=CC(C)(C)CC1(O[Si](C)(C)C)C(F)(F)F (stereo not given) | > 100 | > 100 | > 100 | > 100 | > 100 | > 100 | > 100 | > 100 | > 100 | > 100 | > 100
20 | CCOP(=O)(OCC)/C(F)=C/c1ccccc1 | > 100 | > 100 | > 100 | > 100 | > 100 | > 100 | > 100 | > 100 | > 100 | > 100 | > 100
21 | CC(C)c1c(P(=O)(c2ccccc2)c2ccccc2)n(C)c2ccccc12 | > 100 | > 100 | > 100 | > 100 | > 100 | > 100 | > 100 | > 100 | > 100 | > 100 | > 100
22 | Cc1nc2cc(C(F)(F)F)ccc2[nH]c1=O | > 100 | > 100 | > 100 | > 100 | > 100 | > 100 | > 100 | > 100 | > 100 | > 100 | > 100
23 | C[C@@H]1C[C@H](O)[C@]2(O)O[C@@H]3C[C@@]4(C=O)[C@@H](CC=C5[C@@H]4CC[C@]4(C)[C@@H](C6=CC(=O)OC6)CC[C@]54O)C[C@H]3O[C@@H]2O1 | 0.0508 | 0.492 | 0.036 | 0.285 | 0.25 | 0.097 | > 100 | 0.349 | < 0.0169 | 0.0384 | 0.627
24 | O=c1c2cc(I)ccc2[nH]c(=S)n1Cc1ccccc1 | 44.6 | > 100 | > 100 | > 100 | > 100 | > 100 | > 100 | > 100 | > 100 | > 100 | > 100
25 | CC1=CC(=O)N(n2c(C)n[nH]c2=O)C1=O | > 100 | > 100 | > 100 | > 100 | > 100 | > 100 | > 100 | > 100 | > 100 | > 100 | > 100
26 | CCN(CC)CCCn1c(=O)c2cccnc2n2c3c(=O)n(C)c(=O)n(C)c3nc12 | > 100 | > 100 | > 100 | > 100 | > 100 | > 100 | > 100 | > 100 | > 100 | > 100 | > 100
